Assay [1] concerns the target hERG (Homo sapiens, UniProt Q12809). In words: cell-based.
The target of assay [2] is TASK-1 (K2P3.1), wild type (Homo sapiens, UniProt O14649). In words: two-electrode voltage clamp, Xenopus oocytes. It counts as cell-based.
In assay [3] the target is T1, Kv4.3 (Homo sapiens, UniProt Q9UK17).
T1 sequence (Q9UK17 1-655): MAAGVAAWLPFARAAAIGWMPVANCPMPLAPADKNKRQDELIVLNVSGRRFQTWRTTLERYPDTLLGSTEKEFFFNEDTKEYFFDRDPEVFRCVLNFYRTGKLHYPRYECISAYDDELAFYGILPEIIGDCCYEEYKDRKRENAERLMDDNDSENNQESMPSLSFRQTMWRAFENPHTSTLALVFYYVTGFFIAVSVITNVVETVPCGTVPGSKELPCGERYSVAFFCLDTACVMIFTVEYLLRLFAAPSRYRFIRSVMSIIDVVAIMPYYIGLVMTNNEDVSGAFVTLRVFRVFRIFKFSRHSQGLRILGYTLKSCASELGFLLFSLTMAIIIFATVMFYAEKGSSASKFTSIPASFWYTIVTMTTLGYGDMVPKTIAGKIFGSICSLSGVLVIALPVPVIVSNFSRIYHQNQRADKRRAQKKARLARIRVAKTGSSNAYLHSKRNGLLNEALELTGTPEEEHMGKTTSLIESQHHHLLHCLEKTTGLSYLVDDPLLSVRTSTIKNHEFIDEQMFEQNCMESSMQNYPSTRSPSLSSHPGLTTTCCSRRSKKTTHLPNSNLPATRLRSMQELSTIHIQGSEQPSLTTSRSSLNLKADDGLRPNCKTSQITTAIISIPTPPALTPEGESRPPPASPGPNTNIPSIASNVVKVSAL
As to the kind of experiment: cell-based.

In assay [4] the target is T2, HCN4 (Homo sapiens, UniProt Q9Y3Q4).
T2 sequence (Q9Y3Q4 1-1203): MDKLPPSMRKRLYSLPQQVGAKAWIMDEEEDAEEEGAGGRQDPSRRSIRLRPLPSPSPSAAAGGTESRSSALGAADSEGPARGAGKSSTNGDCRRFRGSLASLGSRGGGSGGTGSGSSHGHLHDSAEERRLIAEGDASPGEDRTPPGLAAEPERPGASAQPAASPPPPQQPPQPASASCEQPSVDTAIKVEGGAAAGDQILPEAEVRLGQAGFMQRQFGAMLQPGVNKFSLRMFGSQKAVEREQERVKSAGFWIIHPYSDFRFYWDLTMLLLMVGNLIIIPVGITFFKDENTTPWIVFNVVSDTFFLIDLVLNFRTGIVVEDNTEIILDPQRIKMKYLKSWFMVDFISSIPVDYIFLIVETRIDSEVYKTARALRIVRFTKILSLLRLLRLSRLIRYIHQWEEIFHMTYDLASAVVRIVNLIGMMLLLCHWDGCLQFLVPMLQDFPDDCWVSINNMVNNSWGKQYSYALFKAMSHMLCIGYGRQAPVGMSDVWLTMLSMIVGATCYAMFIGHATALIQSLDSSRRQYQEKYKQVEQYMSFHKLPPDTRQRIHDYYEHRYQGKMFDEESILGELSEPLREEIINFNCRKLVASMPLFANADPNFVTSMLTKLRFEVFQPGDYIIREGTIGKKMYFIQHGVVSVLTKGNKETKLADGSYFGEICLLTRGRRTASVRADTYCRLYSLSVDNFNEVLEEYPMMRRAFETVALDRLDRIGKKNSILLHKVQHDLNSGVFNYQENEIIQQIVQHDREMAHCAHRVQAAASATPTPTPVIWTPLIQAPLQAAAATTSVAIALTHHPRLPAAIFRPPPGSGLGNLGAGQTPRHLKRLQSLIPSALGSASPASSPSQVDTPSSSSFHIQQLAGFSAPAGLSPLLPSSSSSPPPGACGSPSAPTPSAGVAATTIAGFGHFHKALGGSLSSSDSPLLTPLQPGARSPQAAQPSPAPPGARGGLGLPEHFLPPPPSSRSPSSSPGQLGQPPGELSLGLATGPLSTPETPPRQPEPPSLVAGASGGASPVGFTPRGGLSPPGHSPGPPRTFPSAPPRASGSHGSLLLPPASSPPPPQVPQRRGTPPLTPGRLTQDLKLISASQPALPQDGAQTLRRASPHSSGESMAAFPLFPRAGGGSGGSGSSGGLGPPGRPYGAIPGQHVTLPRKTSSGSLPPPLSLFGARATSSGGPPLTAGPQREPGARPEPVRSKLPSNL
As to the kind of experiment: cell-based.

Assay [5] has as its target T3, TWIK2 (Homo sapiens, UniProt Q9Y257).
T3 sequence (Q9Y257 1-313): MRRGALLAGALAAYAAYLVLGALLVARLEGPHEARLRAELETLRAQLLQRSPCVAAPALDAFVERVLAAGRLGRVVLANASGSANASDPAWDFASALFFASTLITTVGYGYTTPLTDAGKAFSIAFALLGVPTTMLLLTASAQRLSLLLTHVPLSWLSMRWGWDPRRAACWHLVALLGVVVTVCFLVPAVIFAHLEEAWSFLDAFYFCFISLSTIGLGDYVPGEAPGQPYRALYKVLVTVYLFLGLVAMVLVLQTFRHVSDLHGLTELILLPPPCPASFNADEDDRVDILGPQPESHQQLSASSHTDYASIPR
As to the kind of experiment: cell-based.

Assay [6] has as its target Nav1.5 (Homo sapiens, UniProt Q14524). In words: cell-based.
Assay [7] addresses Cav1.2 (Homo sapiens, UniProt Q13936). In words: cell-based.

Broadly, the IC50 is the midpoint of a concentration-inhibition curve. For orientation: EC50 means the concentration needed to bring the measured effect to its halfway point.

Sequence of hERG (Q12809 whole entry): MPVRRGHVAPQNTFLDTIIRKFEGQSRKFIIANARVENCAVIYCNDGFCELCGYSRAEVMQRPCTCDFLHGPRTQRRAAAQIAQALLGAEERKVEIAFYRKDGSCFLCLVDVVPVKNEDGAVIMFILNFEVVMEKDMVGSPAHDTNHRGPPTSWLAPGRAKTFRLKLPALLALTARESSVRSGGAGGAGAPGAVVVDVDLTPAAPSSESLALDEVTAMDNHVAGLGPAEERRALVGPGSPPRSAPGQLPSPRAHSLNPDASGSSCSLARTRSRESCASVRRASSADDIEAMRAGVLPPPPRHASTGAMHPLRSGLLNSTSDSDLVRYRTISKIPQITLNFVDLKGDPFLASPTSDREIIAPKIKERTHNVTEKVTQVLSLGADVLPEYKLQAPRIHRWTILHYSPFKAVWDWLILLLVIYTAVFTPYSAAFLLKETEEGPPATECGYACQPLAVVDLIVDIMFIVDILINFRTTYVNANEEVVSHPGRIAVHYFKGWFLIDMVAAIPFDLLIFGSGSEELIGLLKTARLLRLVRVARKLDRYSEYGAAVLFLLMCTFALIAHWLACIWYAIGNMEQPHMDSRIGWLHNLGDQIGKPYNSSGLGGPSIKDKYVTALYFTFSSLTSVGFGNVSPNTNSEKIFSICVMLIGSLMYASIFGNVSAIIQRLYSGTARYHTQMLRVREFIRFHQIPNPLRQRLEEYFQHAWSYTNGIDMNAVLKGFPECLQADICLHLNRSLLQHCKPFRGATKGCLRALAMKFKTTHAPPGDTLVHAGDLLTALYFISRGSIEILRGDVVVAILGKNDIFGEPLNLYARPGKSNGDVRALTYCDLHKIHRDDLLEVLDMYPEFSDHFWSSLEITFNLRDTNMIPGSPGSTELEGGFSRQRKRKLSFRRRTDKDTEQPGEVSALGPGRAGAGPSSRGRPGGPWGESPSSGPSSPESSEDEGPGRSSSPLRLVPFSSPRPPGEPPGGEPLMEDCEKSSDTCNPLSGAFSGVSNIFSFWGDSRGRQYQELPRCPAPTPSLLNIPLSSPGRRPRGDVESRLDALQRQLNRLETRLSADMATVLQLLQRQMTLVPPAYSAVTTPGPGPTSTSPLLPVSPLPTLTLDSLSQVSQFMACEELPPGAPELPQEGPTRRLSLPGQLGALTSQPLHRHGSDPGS
Sequence of TASK-1 (K2P3.1), wild type (O14649 whole entry): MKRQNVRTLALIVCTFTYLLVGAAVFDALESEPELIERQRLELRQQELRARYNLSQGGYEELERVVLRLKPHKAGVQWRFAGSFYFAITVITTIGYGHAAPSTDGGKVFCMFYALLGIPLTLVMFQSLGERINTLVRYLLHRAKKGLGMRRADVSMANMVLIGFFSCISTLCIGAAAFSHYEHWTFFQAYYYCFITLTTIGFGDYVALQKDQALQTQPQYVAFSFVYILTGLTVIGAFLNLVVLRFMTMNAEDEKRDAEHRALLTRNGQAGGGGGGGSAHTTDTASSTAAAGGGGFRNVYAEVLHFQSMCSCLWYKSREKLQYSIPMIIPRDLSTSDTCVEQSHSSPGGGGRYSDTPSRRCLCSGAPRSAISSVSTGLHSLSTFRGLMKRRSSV
Sequence of Nav1.5 (Q14524 whole entry): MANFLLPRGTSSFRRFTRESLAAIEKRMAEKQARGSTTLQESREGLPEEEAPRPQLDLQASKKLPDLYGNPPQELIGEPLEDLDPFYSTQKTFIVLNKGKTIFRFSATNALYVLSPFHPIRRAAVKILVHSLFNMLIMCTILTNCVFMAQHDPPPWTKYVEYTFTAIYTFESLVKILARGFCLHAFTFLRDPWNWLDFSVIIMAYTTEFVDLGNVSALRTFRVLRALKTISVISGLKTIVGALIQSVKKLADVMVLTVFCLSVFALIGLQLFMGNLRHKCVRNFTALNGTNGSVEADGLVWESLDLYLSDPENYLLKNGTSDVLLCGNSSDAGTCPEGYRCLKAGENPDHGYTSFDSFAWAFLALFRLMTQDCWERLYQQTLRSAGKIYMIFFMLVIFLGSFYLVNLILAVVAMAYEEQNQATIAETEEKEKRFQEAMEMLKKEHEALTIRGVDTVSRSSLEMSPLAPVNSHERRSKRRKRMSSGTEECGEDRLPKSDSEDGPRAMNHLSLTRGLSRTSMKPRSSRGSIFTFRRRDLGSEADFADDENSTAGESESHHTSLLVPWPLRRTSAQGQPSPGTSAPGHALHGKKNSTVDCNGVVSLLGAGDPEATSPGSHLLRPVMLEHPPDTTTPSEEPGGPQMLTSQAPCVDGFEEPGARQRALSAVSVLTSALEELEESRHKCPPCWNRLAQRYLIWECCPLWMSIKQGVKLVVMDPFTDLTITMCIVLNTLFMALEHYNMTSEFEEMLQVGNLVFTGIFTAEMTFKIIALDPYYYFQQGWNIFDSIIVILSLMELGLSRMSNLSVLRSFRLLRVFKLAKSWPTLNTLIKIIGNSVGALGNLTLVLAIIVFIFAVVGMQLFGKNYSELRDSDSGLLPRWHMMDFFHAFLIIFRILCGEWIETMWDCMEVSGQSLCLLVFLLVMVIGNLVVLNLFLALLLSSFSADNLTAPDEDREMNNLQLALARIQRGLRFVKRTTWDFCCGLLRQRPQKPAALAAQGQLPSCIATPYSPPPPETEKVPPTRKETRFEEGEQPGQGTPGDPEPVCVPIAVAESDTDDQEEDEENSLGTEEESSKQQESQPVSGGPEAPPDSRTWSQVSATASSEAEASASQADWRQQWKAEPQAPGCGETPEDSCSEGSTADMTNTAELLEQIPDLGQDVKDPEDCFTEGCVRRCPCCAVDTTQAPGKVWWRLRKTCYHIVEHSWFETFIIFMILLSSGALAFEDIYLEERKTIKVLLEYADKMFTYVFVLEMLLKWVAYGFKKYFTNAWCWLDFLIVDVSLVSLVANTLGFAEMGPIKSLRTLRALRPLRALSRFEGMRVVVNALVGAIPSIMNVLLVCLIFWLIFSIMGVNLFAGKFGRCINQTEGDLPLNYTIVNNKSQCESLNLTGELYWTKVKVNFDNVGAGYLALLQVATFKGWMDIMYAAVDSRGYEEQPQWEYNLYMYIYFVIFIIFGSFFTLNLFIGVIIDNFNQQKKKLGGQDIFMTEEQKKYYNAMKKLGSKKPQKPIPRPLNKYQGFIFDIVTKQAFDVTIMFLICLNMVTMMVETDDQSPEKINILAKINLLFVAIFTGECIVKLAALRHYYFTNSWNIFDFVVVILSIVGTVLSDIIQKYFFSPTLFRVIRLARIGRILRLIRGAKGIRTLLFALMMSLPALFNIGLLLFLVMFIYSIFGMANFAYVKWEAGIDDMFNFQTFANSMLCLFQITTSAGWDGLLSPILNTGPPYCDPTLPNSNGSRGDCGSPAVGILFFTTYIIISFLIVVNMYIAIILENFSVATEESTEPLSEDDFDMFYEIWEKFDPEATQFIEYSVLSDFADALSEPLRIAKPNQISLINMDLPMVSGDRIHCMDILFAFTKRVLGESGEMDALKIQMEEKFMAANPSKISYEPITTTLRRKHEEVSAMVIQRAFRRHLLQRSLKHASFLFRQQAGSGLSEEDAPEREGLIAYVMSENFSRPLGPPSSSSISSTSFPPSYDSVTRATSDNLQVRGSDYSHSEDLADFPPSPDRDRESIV

In the case of `O=C(c1ccccc1F)N1CCN(Cc2c(-c3ccc(Br)cc3)nc3ccccn23)CC1` [BAY 1000493, (4-{[2-(4-bromophenyl)imidazo[1,2-a]pyridin-3-yl]methyl}vpiperazin-1-yl)(2-fluorophenyl)methanone], the IC50 in assay [1] is 2.4 µM; in assay [3], > 10 µM; in assay [4], > 30 µM; in assay [5], > 30 µM; in assay [6], > 30 µM; in assay [7] it was > 30 µM. For the same compound, the midpoint of the response in assay [2], the EC50, lay at 0.0095 µM.

For the origin of these results see publication doi:10.1101/706168v1 (biorxiv, 2019).
